Results: patent publication US20230279024A1, “TRIAZINE COMPOUND AND COMPOSITION AND USE THEREOF” (BEIJING FINDCURE BIOSCIENCES, LTD., priority 2020, published 2023)

What was measured:
[1] = test system: CYP3A4/5; assay: Inhibition of human liver microsomes CYP450, 3A4/5; type: in vitro ADME; details: compounds 10 μM (positive control: concentration not given)
[2] = molecular target: CYP1A2 (Homo sapiens (Human), UniProt P05177); details: microsomes, 10 µM
[3] = molecular target: CYP2D6 (Homo sapiens (Human), UniProt P10635); assay: Inhibition of human liver microsomes CYP450, 2D6; type: in vitro ADME; details: compounds 10 μM (positive control: concentration not given)
[4] = test system: Ba/F3 AXL cells; assay: Cell activity test: growth inhibition of Ba/F3 AXL cell line (CTG, 72 h); type: cell-based; details: Mus musculus, BaF3

Chain of CYP2D6 (P10635 whole entry): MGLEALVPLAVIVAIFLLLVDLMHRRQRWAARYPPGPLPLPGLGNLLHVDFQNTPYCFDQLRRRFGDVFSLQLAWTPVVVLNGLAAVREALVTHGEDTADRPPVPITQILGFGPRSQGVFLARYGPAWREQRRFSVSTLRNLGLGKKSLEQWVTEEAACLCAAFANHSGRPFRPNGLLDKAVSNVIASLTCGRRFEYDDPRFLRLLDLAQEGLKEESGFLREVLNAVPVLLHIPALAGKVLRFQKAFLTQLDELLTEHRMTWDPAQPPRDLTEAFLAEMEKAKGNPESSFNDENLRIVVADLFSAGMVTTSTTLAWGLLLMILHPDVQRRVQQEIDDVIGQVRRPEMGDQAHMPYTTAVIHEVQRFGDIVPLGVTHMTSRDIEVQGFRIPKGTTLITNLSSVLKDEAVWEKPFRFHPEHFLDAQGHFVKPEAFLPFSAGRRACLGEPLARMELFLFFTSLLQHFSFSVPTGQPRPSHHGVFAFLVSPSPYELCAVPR
Chain of CYP1A2 (P05177 whole entry): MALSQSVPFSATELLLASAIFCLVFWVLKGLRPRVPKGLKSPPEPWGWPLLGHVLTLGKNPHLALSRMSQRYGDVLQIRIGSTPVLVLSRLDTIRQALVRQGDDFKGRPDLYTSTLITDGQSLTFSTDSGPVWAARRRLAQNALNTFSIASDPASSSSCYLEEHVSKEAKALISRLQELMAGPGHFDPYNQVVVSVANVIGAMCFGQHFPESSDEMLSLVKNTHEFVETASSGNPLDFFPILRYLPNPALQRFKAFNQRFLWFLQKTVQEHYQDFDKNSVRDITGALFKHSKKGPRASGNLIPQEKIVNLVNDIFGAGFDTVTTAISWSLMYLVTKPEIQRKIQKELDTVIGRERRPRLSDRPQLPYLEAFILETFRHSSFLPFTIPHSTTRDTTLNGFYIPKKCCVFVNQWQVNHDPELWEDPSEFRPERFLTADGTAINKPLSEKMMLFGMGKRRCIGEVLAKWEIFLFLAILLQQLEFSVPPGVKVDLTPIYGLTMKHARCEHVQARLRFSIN

Nc1ncnn2c(C3CCC(O)CC3)cc(-c3ccc(NC(=O)c4c5n(n(-c6ccccc6)c4=O)CCCC5)nc3)c12 (stereo not shown) [example 21, N-(5-(4-amino-7-(4-hydroxycyclohexyl)pyrrolo[2,1-f][1,2,4]triazin-5-yl)pyridin-2-yl)-2-oxo-1-phenyl-1,2,4,5,6,7-hexahydropyrazolo[1,5-a]pyridine-3-carboxamide]
Inhibitory rate (%) 3A4/5 [1]: No inhibition
Inhibitory rate (%) 1A2 [2]: No inhibition
Inhibitory rate (%) 2D6 [3]: No inhibition
IC50 [4]: < 5 nM
